From ChEMBL document CHEMBL3862043, “Fluorescent Inhibitors as Tools To Characterize Enzymes: Case Study of the Lipid Kinase Phosphatidylinositol 4-Kinase IIIβ (PI4KB)” (J Med Chem, 2017) come the findings set out here.

SMILES strings stand for the structures.

The nature of the data set: Drug uptake in vesicles of HeLa cells transfected with iRFP-tagged PI4KB (unknown origin) incubated for 30 mins by fluorescence spectroscopy. It counts as ADME, cell-based. Particulars: human, 0.5 h; call rule not given here.

For `CCc1cc(CNc2cc(Cl)nn3c(-c4ccc(OC)c(S(=O)(=O)NCc5cn(-c6cc7ccc(O)cc7oc6=O)nn5)c4)c(C)nc23)ccn1`, the Drug uptake entry is “Active”.
